Earlier results in patent publication US6514531B1, “Controlled-release dosage forms comprising zolpidem or a salt thereof” (Sanofi-Synthelabo, priority 1998, dated 2003).

Cc1ccc(-c2nc3ccc(C)cn3c2CC(=O)N(C)C)cc1 [zolpidem]
kinetics in the therapeutical dose range (between 5 and 10 mg in conventional forms): linear kinetics | duration of action (hypnotic action, oral, conventional forms): up to 6 hours
